Source: paper PMC6273036, “N-Alkoxyphenylhydroxynaphthalenecarboxamides and Their Antimycobacterial Activity” (Molecules, 2016)
Converted amounts (≈) assume the structure as drawn. Where two headings read alike, the source gives them in different places.

Assays:
M. smegmatis ATCC 700084 = experiment: In vitro antimycobacterial evaluation (broth dilution micro-method, MIC) against M. smegmatis; type: cell-based; conditions: Mycolicibacterium smegmatis, ATCC700084, 72 h; Mycobacterium smegmatis ATCC 700084; MIC = IC90; 3 days incubation, visual
[1] = tested on: Mycobacterium tuberculosis H37Ra ATCC 25177; experiment: In vitro antimycobacterial evaluation (alamarBlue, MIC) against M. tuberculosis; type: cell-based; conditions: 168 h, M. tuberculosis H37Ra ATCC 25177, MIC = 90% or greater (IC90) reduction of growth, 7 days
Procedure: The evaluation of the in vitro antimycobacterial activity of the compounds was performed against Mycobacterium tuberculosis H37Ra ATCC 25177 (MT), M. kansasii DSM 44162 (MK) and M. smegmatis ATCC 700084 (MS), see Table 1. To lower risk and make manipulation in the laboratory easier, surrogate model pathogens for M. tuberculosis can be used in laboratory studies. Avirulent M. tuberculosis strain H37Ra is very closely related to and has similar pathology as human-infecting M. tuberculosis strains, making it a good model for study especially because of the lower risk for laboratory workers. M. kansasii, the most virulent of the NTM, causes nontuberculous mycobacterial lung infections, which are now very common, and can be indistinguishable from tuberculosis. M. smegmatis is an ideal representative of a fast-growing nonpathogenic microorganism, particularly useful in studying basic cellular processes of special relevance to pathogenic mycobacteria. Therefore additionally M. kansasii and M. smegmatis were chosen as model species for screening of prospective antimycobacterial drugs to control mycobacterial diseases. The potency of the compounds was expressed as the minimum inhibitory concentration (MIC) that is defined for mycobacteria as 90% or greater (IC90) reduction of growth in comparison with the control.
Mycobacterium tuberculosis H37Ra ATCC 25177 was grown in Middlebrook broth (MB), supplemented with Oleic-Albumin-Dextrose-Catalase (OADC) supplement (Becton, Dickinson & Comp., Franklin Lakes, NJ, USA) and mycobactin J (2 μg/mL). At log phase growth, a culture sample (10 mL) was centrifuged at 15,000 rpm/20 min using a bench top centrifuge (Model CR 4-12, Jouan Inc., Winchester, VA, USA). Following the removal of the supernatant, the pellet was washed in fresh Middlebrook 7H9GC broth and re-suspended in fresh, ODAC-supplemented MB (10 mL). The turbidity was adjusted to match McFarland standard No. 1 (3 × 10^8 cfu) with MB broth. A further 1:20 dilution of the culture was then performed in MB broth. The antimicrobial susceptibility of M. tuberculosis was investigated in a 96-well plate format. In these experiments, sterile deionised water (300 µL) was added to all outer-perimeter wells of the plates to minimize evaporation of the medium in the test wells during incubation. Each evaluated compound (100 µL) was incubated with M. tuberculosis (100 µL). Dilutions of each compound were prepared in duplicate. For all synthesized compounds, final concentrations ranged from 1000 μg/mL to 8 μg/mL. All compounds were dissolved in DMSO, and subsequent dilutions were made in supplemented MB. The plates were sealed with parafilm and incubated at 37 °C for 7 days. Following incubation, a 10% addition of alamarBlue (AbD Serotec, Kidlington, UK) was mixed into each well, and readings at 570 nm and 600 nm were taken, initially for background subtraction and subsequently after 24 h re-incubation. The background subtraction is necessary for strongly coloured compounds, where the colour may interfere with the interpretation of any colour change. For non-interfering compounds, a blue colour in the well was interpreted as the absence of growth, and a pink colour was scored as growth.
The minimum inhibitory concentration (MIC) was defined as the lowest concentration of the compound at which no visible bacterial growth was observed, i.e., the MIC is the lowest concentration that prevented a visual colour change from blue to pink. MIC is defined for mycobacteria as 90% or greater (IC90) reduction of growth in comparison with the control. The MIC/IC90 value is routinely and widely used in bacterial assays and is a standard detection limit according to the Clinical and Laboratory Standards Institute (CLSI, www.clsi.org). Rifampicin and isoniazid (Sigma-Aldrich) were used as the standards as they are clinically used antimycobacterial drugs.

[2] = tested on: Mycobacterium kansasii DSM 44162; experiment: In vitro antimycobacterial evaluation (broth dilution micro-method, MIC) against M. kansasii; type: cell-based; conditions: DSM44162, 168 h, M. kansasii DSM 44162, MIC = IC90, 7 days incubation, visual
[3] = tested on: Mycobacterium tuberculosis H37Ra ATCC 25177; experiment: MTT assay, viability of M. tuberculosis H37Ra; type: cell-based; conditions: at the tested concentration equal to MICs; 7 days; positive result when viability less than 70%
Procedure: The MTT assay is a well-characterized method of assessing cell growth through measurement of respiration. For the purpose of this assay, a positive result was recorded when the MTT measured viability of M. tuberculosis H37Ra was less than 70% after exposure to the MIC of each test compound.
For the MTT (3-(4,5-dimethylthiazol-2-yl)-2,5-diphenyltetrazolium bromide) assay, the outer wells of a 96-well plate were filled with 200 µL of sterile water, and the inner wells were filled with 100 µL of the tested compound at the MIC to be examined. Compounds were prepared as previously stated and diluted in Middlebrook media to achieve the desired concentration. Mycobacterium tuberculosis H37Ra ATCC 25177 was suspended in ODAC supplemented Middlebrook broth at a MacFarland standard of 1.0 and then diluted 1:20, using Middlebrook broth as a diluent. The diluted mycobacteria (100 µL) were added to each well containing the compound to be tested. A negative growth control was composed of 100 µL of DMSO and 100 µL of the media, and the diluted mycobacteria in broth absent of inhibiting compounds were used as a positive growth control. All compounds and controls were prepared in triplicate. Plates were incubated at 37 °C for 7 days. After the incubation period, 10% well volume of MTT reagent was mixed into each well and incubated at 37 °C for 24 h. The reagent and media were then aspirated from the wells, to which 50 µL 99% isopropanol was then added, and the plates were read at 570 nm. The absorbance readings from the cells, grown in the presence of the tested compounds, were compared with uninhibited cell growth (using DMSO as the blank) to determine the relative percent viability. The percent viability was determined through the MTT assay. The percent viability is calculated through comparison of a measured value against that of the uninhibited control: %viability = OD570E/OD570P × 100, where OD570E is the reading from the compound-exposed cells, while OD570P is the reading from the uninhibited cells (positive control). Cytotoxic potential is determined by a percent viability of <70%.

[4] = tested on: human monocytic leukemia THP-1 cells; experiment: In vitro antiproliferative assay (WST-1); conditions: THP-1, 24 h, read-out: IC50 (antiproliferative activity)
Procedure: Human monocytic leukemia THP-1 cells were used for in vitro antiproliferative assay. Cells were obtained from the European Collection of Cell Cultures (ECACC, Salisbury, UK) and routinely cultured in RPMI 1640 medium supplemented with 10% fetal bovine serum, 2% L-glutamine, 1% penicillin and streptomycin at 37 °C with 5% CO2. Cells were passaged at approximately one-week intervals. Antiproliferative activity of the compounds was determined using a Water Soluble Tetrazolium Salts-1 (WST-1, 2-(4-iodophenyl)-3-(4-nitrophenyl)-5-(2,4-disulfophenyl)-2H-tetrazolium) assay kit (Roche Diagnostics, Mannheim, Germany) according to the manufacturer’s instructions. The tested compounds were dissolved in DMSO and added in five increasing concentrations (0.37, 1.1, 3.3, 10 and 30 μM) to the cell suspension in the culture RPMI 1640 medium. The maximum concentration of DMSO in the assays never exceeded 0.1%. Subsequently, the cells were incubated for 24 h at 37 °C with 5% CO2. For WST-1 assays, cells were seeded into 96-well plates (5 × 10^4 cells/well in 100 μL culture medium) in triplicate in serum-free RPMI 1640 medium, and measurements were taken 24 h after the treatment with the compounds. The median inhibition concentration values, IC50, were deduced through the production of a dose-response curve. All data were evaluated using GraphPad Prism 5.00 software (GraphPad Software, San Diego, CA, USA).

[5] = tested on: human monocytic leukemia THP-1 cells; conditions: assessed in this line formerly, read-out: IC50 (antiproliferative activity); cited from earlier work

Compound | MIC (M. smegmatis ATCC 700084) [µM] | MIC [1] [µM] | MIC [2] [µM] | viability of M. tuberculosis H37Ra (MTT) [3] [%] | IC50 [4] [nM] | IC50 [5] [nM]
CCOc1ccccc1NC(=O)c1c(O)ccc2ccccc12 [Compound 3a, N-(2-Ethoxyphenyl)-2-hydroxynaphthalene-1-carboxamide] | 832 (≈ 256 µg/mL) | 26 (≈ 7.99 µg/mL) | 832 (≈ 256 µg/mL) | 30.6 | > 30000 | –
CCOc1ccc(NC(=O)c2c(O)ccc3ccccc23)cc1 [Compound 3c] | 832 (≈ 256 µg/mL) | 26 (≈ 7.99 µg/mL) | 104 (≈ 32 µg/mL) | 9.96 | > 30000 | –
CCCOc1ccc(NC(=O)c2c(O)ccc3ccccc23)cc1 [Compound 4c, 2-Hydroxy-N-(4-propoxyphenyl)naphthalene-1-carboxamide] | 398 (≈ 128 µg/mL) | 12 (≈ 3.86 µg/mL) | 99 (≈ 31.8 µg/mL) | 5.90 | > 30000 | –
CCCCOc1cccc(NC(=O)c2c(O)ccc3ccccc23)c1 [Compound 5b, N-(3-Butoxyphenyl)-2-hydroxynaphthalene-1-carboxamide] | 381 (≈ 128 µg/mL) | 23 (≈ 7.71 µg/mL) | 190 (≈ 63.7 µg/mL) | 7.38 | > 30000 | –
CC(C)Oc1ccc(NC(=O)c2c(O)ccc3ccccc23)cc1 [Compound 6c, 2-Hydroxy-N-[4-(prop-2-yloxy)phenyl]naphthalene-1-carboxamide] | 796 (≈ 256 µg/mL) | 25 (≈ 8.03 µg/mL) | 99 (≈ 31.8 µg/mL) | 8.96 | > 30000 | –
CCC(C)Oc1cccc(NC(=O)c2c(O)ccc3ccccc23)c1 (stereo not drawn) [Compound 7b, N-[3-(But-2-yloxy)phenyl]-2-hydroxynaphthalene-1-carboxamide] | 12 (≈ 4.02 µg/mL) | 23 (≈ 7.71 µg/mL) | 47 (≈ 15.8 µg/mL) | 7.38 | > 30000 | –
CCC(C)Oc1ccc(NC(=O)c2c(O)ccc3ccccc23)cc1 (stereo not drawn) [Compound 7c, N-[4-(But-2-yloxy)phenyl]-2-hydroxynaphthalene-1-carboxamide] | 12 (≈ 4.02 µg/mL) | 23 (≈ 7.71 µg/mL) | 95 (≈ 31.9 µg/mL) | 8.86 | > 30000 | –
CCCOc1cccc(NC(=O)c2ccc3ccccc3c2O)c1 [Compound 11b, 1-Hydroxy-N-(3-propoxyphenyl)naphthalene-2-carboxamide] | 199 (≈ 64 µg/mL) | 24 (≈ 7.71 µg/mL) | 49 (≈ 15.7 µg/mL) | 15.13 | 1370 ± 720 | –
CCCCOc1cccc(NC(=O)c2ccc3ccccc3c2O)c1 [Compound 12b, N-(3-Butoxyphenyl)-1-hydroxynaphthalene-2-carboxamide] | 190 (≈ 63.7 µg/mL) | 23 (≈ 7.71 µg/mL) | 47 (≈ 15.8 µg/mL) | 9.96 | 1800 ± 320 | –
CCC(C)Oc1cccc(NC(=O)c2ccc3ccccc3c2O)c1 (stereo not drawn) [Compound 14b, N-[3-(But-2-yloxy)phenyl]-1-hydroxynaphthalene-2-carboxamide] | 12 (≈ 4.02 µg/mL) | 23 (≈ 7.71 µg/mL) | 47 (≈ 15.8 µg/mL) | 9.96 | 1170 ± 380 | –
CC[C@@]1(O)C(=O)OCc2c1cc1n(c2=O)Cc2cc3ccccc3nc2-1 [camptothecin] | – | – | – | – | – | 160 ± 70
